# Laboratory results taken from patent publication US12264155B2, “Compounds, pharmaceutical compositions, and methods of preparing compounds and of their use as ATR kinase inhibitors” (Repare Therapeutics Inc., priority 2018, dated 2025).
# Test system: ATR kinase (CHK1 phosphorylation at Ser345) in HeLa S3 cells
# Assay: ATR assay in HeLa S3 cells (CHK1 p-Ser345 AlphaScreen SureFire, gemcitabine); also: gemcitabine 1.5 µM
# Type: cell-based
# Settings: Homo sapiens, HeLa S3, HeLa S3 whole cell assay, 3.5 to 4 hours
# Procedure: Media was then replaced by 20 μL per well Opti-MEM no phenol red and 5 μL of serial diluted compounds were added to the assay plate for a final DMSO concentration of 0.5%. […] The plate was incubated at 37° C., 1-5% CO2 for 3.5 to 4 hours.
row,Compound,IC50 [nM]
1,C[C@@H]1COCCN1c1cc(N2CCCOCC2=O)c2cnn(-c3cc[nH]n3)c2n1 [Compound 136],46
2,"C[C@@H]1COCCN1c1cc(-c2cccnc2N)c2cnn(-c3cc[nH]n3)c2n1 [Compound 125, (R)-3-(6-(3-methylmorpholino)-1-(1H-pyrazol-3-yl)-1H-pyrazolo[3,4-b]pyridin-4-yl)pyridin-2-amine]",11
3,COc1ccc(-c2cc(N3CCOC[C@H]3C)nc3c2cnn3-c2cc[nH]n2)c(C(F)(F)F)c1 [Compound 143],7.2
4,C[C@@H]1COCCN1c1cc(-c2ccccc2S(C)(=O)=O)c2c(=O)[nH]n(-c3ccn[nH]3)c2n1 [Compound 152],22
5,C[C@@H]1COCCN1c1cc(-c2cc(Cl)cnc2N)c2cnn(-c3cc[nH]n3)c2n1 [Compound 140],7.2
6,C[C@@H]1COCCN1c1cc(-c2cccc(C(F)(F)F)c2C(N)=O)c2cnn(-c3cc[nH]n3)c2n1 [Compound 131],1.8
7,C[C@@H]1COCCN1c1cc(C2(O)C[C@H]3CC[C@@H](C2)S3)c2cnn(-c3cc[nH]n3)c2n1 (stereo partly shown) [Compound 122],1.1
8,C[C@@H]1COCCN1c1cc(-c2ccc(F)cc2C(F)(F)F)c2cnn(-c3cc[nH]n3)c2n1 [Compound 142],3.6
9,C[C@@H]1COCCN1c1cc(C2(O)CCN(CC(F)F)CC2)c2cnn(-c3cc[nH]n3)c2n1 [Compound 108],1.3
10,C[C@@H]1COCCN1c1nc2c(cnn2-c2cc[nH]n2)c(-c2ccccc2C(F)(F)F)c1Cl [Compound 149],27
11,COCC1CCC(O)(c2cc(N3CCOC[C@H]3C)nc3c2cnn3-c2cc[nH]n2)CC1 (stereo partly shown) [Compound 102],0.9
12,C[C@@H]1COCCN1c1cc(C2(O)CCC(OC(F)(F)F)CC2)c2cnn(-c3ccn[nH]3)c2n1 (stereo partly shown) [Compound 133],1.5
13,C[C@@H]1COCCN1c1cc(C2(O)CCN(c3ncccc3C(F)(F)F)CC2)c2cnn(-c3cc[nH]n3)c2n1 [Compound 96],20
14,C[C@@H]1COCCN1c1cc(C2(O)CCN(c3ccc(C#N)cc3)CC2)c2cnn(-c3cc[nH]n3)c2n1 [Compound 95],2
15,C[C@@H]1COCCN1c1cc(C2(O)CCN(c3ccc(Cl)cc3)CC2)c2cnn(-c3cc[nH]n3)c2n1 [Compound 94],1.9
16,C[C@@H]1COCCN1c1cc(C2(O)CCC(C(C)(C)C)CC2)c2cnn(-c3ccn[nH]3)c2n1 (stereo partly shown) [Compound 132],1.9
17,C[C@@H]1COCCN1c1cc(-c2cccnc2C(F)(F)F)c2cnn(-c3cc[nH]n3)c2n1 [Compound 144],1.3
18,C[C@@H]1COCCN1c1cc(C2(O)CCC3(CCOCC3)CC2)c2cnn(-c3cc[nH]n3)c2n1 [Compound 110],0.7
19,C[C@@H]1COCCN1c1cc([C@]2(O)CC[C@H](C(F)(F)F)CC2)c2cnn(-c3cc[nH]n3)c2n1 [Compound 114],0.8
20,C[C@@H]1COCCN1c1cc([C@]2(O)CCC[C@H](C(F)(F)F)C2)c2cnn(-c3cc[nH]n3)c2n1 [Compound 104],2.4
21,C[C@@H]1COCCN1c1cc([C@]2(O)CC[C@]3(CCCO3)CC2)c2cnn(-c3cc[nH]n3)c2n1 [Compound 113],2.1
22,C[C@@H]1COCCN1c1cc(C2(O)C3CCC2CN(C)C3)c2cnn(-c3cc[nH]n3)c2n1 (stereo partly shown) [Compound 117],38
23,C[C@@H]1COCCN1c1cc([C@]2(O)CC[C@H](c3ccccc3)CC2)c2cnn(-c3cc[nH]n3)c2n1 [Compound 97],0.9
24,C[C@@H]1COCCN1c1cc(-c2ccc(C3CC3)nc2N)c2cnn(-c3cc[nH]n3)c2n1 [Compound 146],3.1
25,C[C@@H]1COCCN1c1cc([C@]2(O)CC[C@@H](c3ccccc3)CC2)c2cnn(-c3cc[nH]n3)c2n1 [Compound 98],1.2
26,C[C@@H]1COCCN1c1cc(C2(O)CCN(c3cccc(F)c3)CC2)c2cnn(-c3cc[nH]n3)c2n1 [Compound 93],0.5

row,Compound,IC50 [nM]
1,C[C@@H]1COCCN1c1cc(C2(O)CCN(C(C)(C)C)CC2)c2cnn(-c3cc[nH]n3)c2n1 [Compound 109],17
2,C[C@@H]1COCCN1c1cc(C2(O)CC(C)(C)N(C)C(C)(C)C2)c2cnn(-c3cc[nH]n3)c2n1 [Compound 119],14
3,C[C@@H]1COCCN1c1cc([C@]2(O)CC[C@@](C)(C#N)CC2)c2cnn(-c3cc[nH]n3)c2n1 [Compound 106],3.3
4,C[C@@H]1COCCN1c1cc([C@@]2(O)C[C@H]3CC[C@@H](C2)O3)c2cnn(-c3cc[nH]n3)c2n1 (stereo in doubt) [Compound 121],0.9
5,CC(C)N1CCC(O)(c2cc(N3CCOC[C@H]3C)nc3c2cnn3-c2cc[nH]n2)CC1 [Compound 118],6.4
6,C[C@@H]1COCCN1c1cc(-c2ccc(F)cc2S(C)(=O)=O)c2cnn(-c3cc[nH]n3)c2n1 [Compound 145],3.8
7,C[C@@H]1COCCN1c1cc([C@]2(O)CC[C@@]3(CCCO3)CC2)c2cnn(-c3cc[nH]n3)c2n1 [Compound 112],0.8
8,C[C@@H]1COCCN1c1cc(-c2ccc(C(F)(F)F)nc2N)c2cnn(-c3cc[nH]n3)c2n1 [Compound 138],9.4
9,C[C@@H]1COCCN1c1cc(C2(O)CCC3(CC2)COC3)c2cnn(-c3cc[nH]n3)c2n1 [Compound 105],1.1
10,C[C@@H]1COCCN1c1cc(-c2cccc(Cl)c2C(N)=O)c2cnn(-c3cc[nH]n3)c2n1 [Compound 130],13
11,C[C@@H]1COCCN1c1cc(-c2cccnc2C(F)(F)F)c2c(=O)[nH]n(-c3ccn[nH]3)c2n1 [Compound 151],9.1
12,C[C@@H]1COCCN1c1cc(-c2ccccc2C(C)(C)O)c2cnn(-c3cc[nH]n3)c2n1 [Compound 128],2.4
13,"C[C@@H]1COCCN1c1cc(-c2ccccc2C(F)(F)F)c2c(=O)[nH]n(-c3ccn[nH]3)c2n1 [Compound 150, 6-[(3R)-3-methylmorpholin-4-yl]-1-(1H-pyrazol-5-yl)-4-[2-(trifluoromethyl)phenyl]-2H-pyrazolo[3,4-b]pyridin-3-one]",7.8
14,C[C@@H]1COCCN1c1cc(-c2ccccc2S(=O)(=O)NC2CC2)c2cnn(-c3cc[nH]n3)c2n1 [Compound 124],63
15,C[C@@H]1COCCN1c1cc(-c2cccnc2C(N)=O)c2cnn(-c3cc[nH]n3)c2n1 [Compound 129],11
16,C[C@@H]1COCCN1c1cc(C2(O)CCN(c3ccc(F)cc3)CC2)c2cnn(-c3cc[nH]n3)c2n1 [Compound 116],1.2
17,COC1CCC(O)(c2cc(N3CCOC[C@H]3C)nc3c2cnn3-c2cc[nH]n2)CC1 (stereo partly shown) [Compound 101],1
18,Cc1nc(C(N)=O)c(-c2cc(N3CCOC[C@H]3C)nc3c2cnn3-c2cc[nH]n2)s1 [Compound 127],7
19,C[C@@H]1COCCN1c1cc(C2(O)CCN(CC(F)(F)F)CC2)c2cnn(-c3cc[nH]n3)c2n1 [Compound 120],1.2
20,C[C@@H]1COCCN1c1cc(C2(O)CCC3(CC3)CC2)c2cnn(-c3cc[nH]n3)c2n1 [Compound 123],0.9
21,C[C@@H]1COCCN1c1cc(C2=C[C@H]3CC[C@@H](C2)O3)c2cnn(-c3cc[nH]n3)c2n1 [Compound 148],2.5
22,C[C@@H]1COCCN1c1cc(N2CCN(c3ccccn3)CC2)c2cnn(-c3cc[nH]n3)c2n1 [Compound 137],2.1
23,Cc1ccc(-c2cc(N3CCOC[C@H]3C)nc3c2cnn3-c2cc[nH]n2)c(N)n1 [Compound 139],4.2
24,C[C@@H]1COCCN1c1cc(C2(O)CCCOCC2)c2cnn(-c3cc[nH]n3)c2n1 (stereo partly shown) [Compound 111],2.4
25,C[C@@H]1COCCN1c1cc(C2(O)CCC(C#N)CC2)c2cnn(-c3cc[nH]n3)c2n1 (stereo partly shown) [Compound 103],1.7
26,C[C@@H]1COCCN1c1cc(C2(O)CCOC3(CCC3)C2)c2cnn(-c3cc[nH]n3)c2n1 (stereo partly shown) [Compound 107],2
